These results are taken from ChEMBL document CHEMBL4002603, “Structure-activity relationship study and discovery of indazole 3-carboxamides as calcium-release activated calcium channel blockers” (Bioorg Med Chem Lett, 2017).

Holding throughout (format): cell-based
Data set [1] is filed under the species Rattus norvegicus. As to the kind of experiment: Inhibition of thapsigargin activated calcium-release activated channel in rat RBL2H3 mast cells assessed as decrease in calcium influx at 10 to 100 uM by Fluo-4NW calcium assay.
A short description of data set [2]: Inhibition of thapsigargin activated calcium-release activated channel in rat RBL2H3 mast cells assessed as decrease in calcium influx by Fluo-4NW calcium assay.
The test system of another data set is RBL-2H3. As to the kind of experiment: Cytotoxicity against rat RBL2H3 mast cells at 100 uM by CCK8 cell viability assay. Conditions: rbl-2h3, 100 µM. A general note: Tetrazolium assays rely on reduction of a dye to a coloured formazan, in cell work by metabolically active cells.
Data set [3] is filed under the species Rattus norvegicus. As to the kind of experiment: Inhibition of thapsigargin activated calcium-release activated channel in rat RBL2H3 mast cells assessed as decrease in calcium influx at 100 uM by Fluo-4NW calcium assay.
For data set [4], the species on record is Rattus norvegicus. As to the kind of experiment: (§1) Inhibition of thapsigargin activated calcium-release activated channel in rat RBL2H3 mast cells assessed as decrease in TNFalpha secretion measured 4 hrs after extracellular calcium exposure by ELISA. A general note: ELISA stands for enzyme-linked immunosorbent assay.
Data set [5] can be described thus: as §1. The conditions noted are these: RBL-2H3, 4 h.
The species entered for data set [6] is Rattus norvegicus. Nature of the data set: Inhibition of thapsigargin activated calcium-release activated channel in rat RBL2H3 mast cells assessed as decrease in calcium influx at 30 uM by Fluo-4NW calcium assay.
The species named for data set [7] is Rattus norvegicus. As to the kind of experiment: (§2) Inhibition of thapsigargin activated calcium-release activated channel in rat RBL2H3 mast cells assessed as decrease in nuclear translocation of NFAT-c1 measured 30 mins after extracellular calcium exposure by ELISA.
The nature of data set [8]: as §2. The conditions noted are these: RBL-2H3, 0.5 h.
Data set [9] is filed under the species Rattus norvegicus. As to the kind of experiment: (§3) Inhibition of thapsigargin activated calcium-release activated channel in rat RBL2H3 mast cells assessed as decrease in release of beta-hexosaminidase preincubated for 30 mins followed by extracellular calcium addition by ELISA method.
Data set [10] is described as follows: as §3. Conditions: RBL-2H3.
Setting [11] is: Rattus norvegicus, RBL-2H3, read-out: IC50.

The structures appear in SMILES notation. Calls of active or inactive are those of the source. The rule behind the calls is not given here.

The inhibition is the percentage by which the read-out fell short of the control. As a reminder, the IC50 is the concentration that inhibits the measured activity by half. In the case of `O=C(Nc1ccc(F)cc1F)c1nn(Cc2ccc(Cl)cc2Cl)c2ccccc12`, the inhibition result in the data set filed under Rattus norvegicus [1] was “Active”. The IC50 in data set [2] (setting [11]) was 2330 nM. Further, the Activity result with RBL-2H3 is “Non-Toxic”.

Regarding `O=C(Nc1cnns1)c1nn(Cc2ccc(Cl)cc2Cl)c2ccccc12`, the inhibition in the data set filed under Rattus norvegicus [3] was under 50%. For the same molecule, the Activity entry in the data set on RBL-2H3 was “Non-Toxic”.

With `O=C(Nc1cc(F)nc(F)c1)c1nn(Cc2ccc(Cl)cc2Cl)c2c1CCCCC2`, the IC50 in data set [2] (setting [11]) worked out at 12800 nM. Further, the Activity entry with RBL-2H3 is given as “Non-Toxic”.

`O=C(Nc1c(F)cccc1F)c1nn(Cc2ccc(Cl)cc2Cl)c2ccccc12`: the inhibition result in the data set listed under Rattus norvegicus [1] is “Active”. In the data set filed under Rattus norvegicus [4], the inhibition result was “Dose-dependent effect”. Besides, the IC50 is 470 nM in data set [5] and 1510 nM in [2] (setting [11]). Moreover, the Activity result with RBL-2H3 is given as “Non-Toxic”.

As to `Cc1cc(NC(=O)c2nn(Cc3ccc(Cl)cc3Cl)c3ccccc23)ccn1`, the inhibition in the data set filed under Rattus norvegicus [3] was under 50%. Besides, the Activity entry in the data set on RBL-2H3 is listed as “Non-Toxic”.

Consider `O=C(Nc1cc(F)nc(F)c1)c1nn(Cc2ccc(Cl)cc2Cl)c2c1CCCC2`, for which the IC50 in data set [2] (setting [11]) was 1340 nM. Also, the Activity result in the data set with RBL-2H3 was “Non-Toxic”.

Take `Cc1cc(C(=O)Nc2nn(Cc3ccc(Cl)cc3Cl)c3ccccc23)ccn1`: the IC50 in data set [2] (setting [11]) is over 30000 nM. Besides, in the data set filed under Rattus norvegicus [6], the inhibition was 44 to 48%. Moreover, in the data set with RBL-2H3, the Activity result was “Non-Toxic”.

As for `O=C(Nc1ccccc1F)c1nn(Cc2ccc(Cl)cc2Cl)c2ccccc12`, the inhibition entry is “Dose-dependent effect” in the data set filed under Rattus norvegicus [4] and 44 to 48% in the data set listed under Rattus norvegicus [6]. The values for the IC50 in data set [5] and in data set [2] (setting [11]) were 280 nM and over 30000 nM, respectively. The Activity entry in the data set with RBL-2H3 is “Non-Toxic”.

For the molecule `O=C(Nc1cc(F)nc(F)c1)c1nn(Cc2ccc(Cl)cc2Cl)c2ccccc12`, the IC50 in data set [2] (setting [11]) is over 30000 nM. For the same molecule, in the data set listed under Rattus norvegicus [6], the inhibition came to 46%. Besides, the Activity entry in the data set on RBL-2H3 was “Non-Toxic”.

With `Cc1cc(NC(=O)c2nn(Cc3ccc(Cl)cc3Cl)c3c2CCCCC3)ccn1`, in [2] (setting [11]), the IC50 was over 30000 nM. Also, in the data set on RBL-2H3, the Activity entry was “Non-Toxic”.

Regarding `Cc1cc(NC(=O)c2nn(Cc3ccc(Cl)cc3Cl)c3c2CCCC3)ccn1`, the IC50 entry in [2] is “Nd(Insoluble)”. The Activity result in the data set on RBL-2H3 is on record as “Non-Toxic”.

With `O=C(Nc1nn(Cc2ccc(Cl)cc2Cl)c2ccccc12)c1ccccc1F`, the inhibition entry in the data set filed under Rattus norvegicus [1] was “Active”. Further, the IC50 in data set [2] (setting [11]) turned out to be 29000 nM. Also, in the data set on RBL-2H3, the Activity entry was “Non-Toxic”.

For `Cc1nnsc1C(=O)Nc1nn(Cc2ccc(Cl)cc2Cl)c2ccccc12`, in [2] (setting [11]), the IC50 is over 30000 nM. Besides, the inhibition in the data set listed under Rattus norvegicus [6] lay in the range of 44 to 48%. Also, the Activity entry with RBL-2H3 was “Non-Toxic”.

As for `O=C(Nc1c(F)cccc1Cl)c1nn(Cc2ccc(Cl)cc2Cl)c2ccccc12`, the inhibition result in the data set filed under Rattus norvegicus [1] was “Active”. Also, the inhibition result in the data set listed under Rattus norvegicus [4] is “Dose-dependent effect”. In addition, the figures for the IC50 in [5] and in data set [2] (setting [11]) were 740 nM and 3230 nM, respectively. The Activity entry in the data set on RBL-2H3 is listed as “Non-Toxic”.

Turning to `O=C(Nc1nn(Cc2ccc(Cl)cc2Cl)c2ccccc12)c1cc(F)nc(F)c1`, in the data set filed under Rattus norvegicus [3], the inhibition is under 50%. Further, in the data set with RBL-2H3, the Activity result is “Non-Toxic”.

As to `O=C(Nc1ccnc(F)c1)c1nn(Cc2ccc(Cl)cc2Cl)c2c1CCCCC2`, the IC50 result in data set [2] is on record as “Nd(Insoluble)”. Further, the Activity result in the data set on RBL-2H3 is recorded as “Non-Toxic”.

In the case of `O=C(Nc1nn(Cc2ccc(Cl)cc2Cl)c2ccccc12)c1ccnc(F)c1`, the inhibition in the data set listed under Rattus norvegicus [3] was under 50%. Besides, the Activity entry in the data set on RBL-2H3 was “Non-Toxic”.

For the molecule `O=C(Nc1ccnc(F)c1)c1nn(Cc2ccc(Cl)cc2Cl)c2c1CCC2`, the IC50 in data set [2] (setting [11]) was 990 nM. In addition, the Activity entry in the data set on RBL-2H3 is recorded as “Non-Toxic”.

Consider `O=C(Nc1cc(F)nc(F)c1)c1nn(Cc2ccc(Cl)cc2Cl)c2c1CCC2`, for which the IC50 in data set [2] (setting [11]) was 650 nM. In the data set with RBL-2H3, the Activity entry is given as “Non-Toxic”.

Broadly, the EC50 is the midpoint of the concentration-response curve. With `O=C(Nc1ccnc(F)c1)c1nn(Cc2ccc(Cl)cc2Cl)c2ccccc12`, the inhibition entry in the data set listed under Rattus norvegicus [7], in the data set filed under Rattus norvegicus [4] and in the data set listed under Rattus norvegicus [9] was “Dose-dependent effect” throughout. The IC50 was 1600 nM in data set [8] and 670 nM in data set [2] (setting [11]). Besides, in the data set listed under Rattus norvegicus [1], the inhibition entry is “Active”. Moreover, in [10], the EC50 turned out to be 860 nM. In the data set with RBL-2H3, the Activity result is recorded as “Non-Toxic”.

Consider `O=C(Nc1nn(Cc2ccc(Cl)cc2Cl)c2ccccc12)c1c(F)cccc1F`, for which the inhibition in the data set filed under Rattus norvegicus [3] was under 50%. Further, in the data set with RBL-2H3, the Activity entry is reported as “Non-Toxic”.

`O=C(Nc1ccnc(F)c1)c1nn(Cc2ccc(Cl)cc2Cl)c2c1CCCC2`: in data set [2] (setting [11]), the IC50 was found to be 1530 nM. Moreover, the Activity result in the data set with RBL-2H3 is recorded as “Non-Toxic”.

Turning to `Cc1cc(NC(=O)c2nn(Cc3ccc(Cl)cc3Cl)c3c2CCC3)ccn1`, in data set [2] (setting [11]), the half-inhibitory concentration (IC50) was over 30000 nM. The Activity entry in the data set with RBL-2H3 is reported as “Non-Toxic”.

For the molecule `O=C(Nc1nn(Cc2ccc(Cl)cc2Cl)c2ccccc12)c1ccc(F)cc1F`, the inhibition in the data set listed under Rattus norvegicus [3] is under 50%. Besides, the Activity entry in the data set with RBL-2H3 is listed as “Non-Toxic”.
